Experimental data from article PMC10910531.

Columns and labels:
[1] = CRE method A: lactone/lactam formation, T3P + DIPEA, internal nucleophile (pyridine/amine) cascade; details: the molecule shown is the open-chain precursor, CHCl3, 50.0 mM, 22.0 °C
[2] = CRE method B: lactone/thiolactone/lactam formation, EDC.HCl + HOBt + DIPEA; details: DMF, 100.0 mM, 22.0 °C
[3] = CRE method C: cyclic carbamate/urea formation with triphosgene + Et3N; details: the molecule shown is the open-chain precursor, CH2Cl2, 100.0 mM, 22.0 °C
[4] = CRE method E: cyclic oxalate-type (1,2-dicarbonyl) formation with oxalyl chloride + Et3N; details: the molecule shown is the open-chain precursor, CH2Cl2, 50.0 mM, 22.0 °C
[5] = CRE method F: cyclic sulfite/sulfamidite formation with SOCl2 + DMAP; details: the molecule shown is the open-chain precursor, CH2Cl2, 50.0 mM, 22.0 °C, 18.0 h

For CC(O)Cc1cccc(-c2ccccc2CC(=O)O)n1 (stereo not shown) [8 -> 9], which ring closure, isolated yield ([1]; 10-membered ring, 0.5 h) is on record?
The ring closure, isolated yield was 90%.

With CC(O)Cc1cccc(-c2ccccc2CC(=O)O)c1 (stereo not shown) [10 -> 11 (control)] as the compound, how does the ring closure, isolated yield ([1]; 10-membered ring) read?
The ring closure, isolated yield was 0%.

Which ring closure, isolated yield ([2]; from O=C(O)c1ccccc1CSCCCO, 9-membered ring, 18.0 h) does the source give for O=C1OCCCSCc2ccccc21 [12 -> 13] here?
Its ring closure, isolated yield is 86%.

For O=C1OCCCCCc2ccccc21 [14 -> 15 (control)], which ring closure, isolated yield ([2]; from O=C(O)c1ccccc1CCCCCO, 9-membered ring, 18.0 h) is on record?
Its ring closure, isolated yield is 43%.

Which ring closure, isolated yield ([3]; 9-membered ring, 0.5 h) does the source give for O=C(Cl)N(CCN(CCCO)c1ccccc1)c1ccccc1 [16 -> 17] here?
The ring closure, isolated yield was 62%.

With O=C(Cl)N(CCCCCCO)c1ccccc1 [18 -> 19 (control)] as the compound, how does the ring closure, isolated yield ([3]; 9-membered ring) read?
Its ring closure, isolated yield is 0%.

Which ring closure, isolated yield ([4]; 10-membered ring, 18.0 h) does the source give for CN(CCCO)c1ccccc1N(C)C(=O)C(=O)Cl [24 -> 25] here?
The ring closure, isolated yield was 73%.

For CN(C(=O)C(=O)Cl)c1ccccc1CCCCO [26 -> 27 (control)], which ring closure, isolated yield ([4]; 10-membered ring, 18.0 h) is on record?
The ring closure, isolated yield was 9%.

For O=S(Cl)OCCCN(CCCO)Cc1ccccc1 (stereo not shown) [28 -> 29], which ring closure, isolated yield ([5]; 10-membered ring) is on record?
Its ring closure, isolated yield is 86%.

For O=S(Cl)OCCCCCCCO (stereo not shown) [30 -> 31 (control)], which ring closure, isolated yield ([5]; 10-membered ring) is on record?
The ring closure, isolated yield was 8%.

Which ring closure, isolated yield ([4]; 11-membered ring, 18.0 h) does the source give for CNCCCN(C)CCCN(C)C(=O)C(=O)Cl [34 -> 98] here?
Its ring closure, isolated yield is 71%.

Which ring closure, isolated yield ([2]; from O=C(O)c1ccccc1CSCCO, 8-membered ring) does the source give for O=C1OCCSCc2ccccc21 [47] here?
Its ring closure, isolated yield is 88%.

With O=C1OCCCSCc2c(Br)cccc21 [49c] as the compound, how does the ring closure, isolated yield ([2]; from O=C(O)c1cccc(Br)c1CSCCCO, 9-membered ring) read?
The ring closure, isolated yield was 67%.

For O=C1OCCCSCc2c1cccc2[N+](=O)[O-] [50], which ring closure, isolated yield ([2]; from O=C(O)c1cccc([N+](=O)[O-])c1CSCCCO, 9-membered ring, 24.0 h) is on record?
The ring closure, isolated yield was 47%.

For O=C1OCCCSCc2ccc(F)cc21 [S30 -> 48], which ring closure, isolated yield ([2]; from O=C(O)c1cc(F)ccc1CSCCCO, 9-membered ring, 18.0 h) is on record?
The ring closure, isolated yield was 80%.

For CC1CCSCc2ccccc2C(=O)O1 (stereo not shown) [S43 -> 51], which ring closure, isolated yield ([2]; from CC(O)CCSCc1ccccc1C(=O)O, 9-membered ring, 16.0 h) is on record?
The ring closure, isolated yield was 71%.

Which ring closure, isolated yield ([1]; 10-membered ring, 0.5 h) does the source give for CC(O)Cc1cncc(-c2ccccc2CC(=O)O)n1 (stereo not shown) [S52 -> 55] here?
The ring closure, isolated yield was 90%.

For CN1CCOC(=O)c2ccccc2-c2ccccc21 [S63 -> 60], which ring closure, isolated yield ([2]; from CN(CCO)c1ccccc1-c1ccccc1C(=O)O, 9-membered ring, 24.0 h) is on record?
The ring closure, isolated yield was 72%.

Which ring closure, isolated yield ([2]; from CN(CCCO)c1ccccc1-c1ccccc1C(=O)O, 10-membered ring, 24.0 h) does the source give for CN1CCCOC(=O)c2ccccc2-c2ccccc21 [S67 -> 61] here?
Its ring closure, isolated yield is 72%.

Which ring closure, isolated yield ([2]; from CC(O)CN(C)c1ccccc1-c1ccccc1C(=O)O, 9-membered ring, 24.0 h) does the source give for CC1CN(C)c2ccccc2-c2ccccc2C(=O)O1 (stereo not shown) [S69 -> 62] here?
Its ring closure, isolated yield is 81%.

With CC1CCN(C)c2ccccc2-c2ccccc2C(=O)O1 (stereo not shown) [S71 -> 63] as the compound, how does the ring closure, isolated yield ([2]; from CC(O)CCN(C)c1ccccc1-c1ccccc1C(=O)O, 10-membered ring, 24.0 h) read?
The ring closure, isolated yield was 78%.

For C=CCNC(C)Cc1cccc(-c2ccccc2CC(=O)O)n1 (stereo not shown) [S74 -> 64 (2 steps)], which ring closure, isolated yield ([1]; 10-membered ring, 0.5 h) is on record?
The ring closure, isolated yield was 75%.

For CC(Cc1cccc(-c2ccccc2CC(=O)O)n1)Nc1ccccc1 (stereo not shown) [S77 -> 65 (quantitative)], which ring closure, isolated yield ([1]; 10-membered ring, 0.5 h) is on record?
Its ring closure, isolated yield is 100%.

With CCNCCCN(CC)Cc1ccccc1C(=O)O [S84-derived acid -> 68 (2 steps)] as the compound, how does the ring closure, isolated yield ([1]; 9-membered ring) read?
The ring closure, isolated yield was 54%.

With O=C1SCCCSCc2ccccc21 [S86 -> 69] as the compound, how does the ring closure, isolated yield ([2]; from O=C(O)c1ccccc1CSCCCS, 9-membered ring, 16.0 h) read?
The ring closure, isolated yield was 65%.

For CN(CCCN)CCCC(=O)O [S104-derived amino acid -> 78 (2 steps)], which ring closure, isolated yield ([1]; 9-membered ring) is on record?
The ring closure, isolated yield was 65%.

Which ring closure, isolated yield ([2]; from O=C(O)c1ccccc1CN(Cc1ccccc1)CC1CCCCN1, 8-membered ring, 18.0 h) does the source give for O=C1c2ccccc2CN(Cc2ccccc2)CC2CCCCN12 (stereo not shown) [S108 -> 79] here?
The ring closure, isolated yield was 82%.

Which ring closure, isolated yield ([2]; from CN(CCCC(=O)O)c1ccccc1O, 8-membered ring, 18.0 h) does the source give for CN1CCCC(=O)Oc2ccccc21 [S114 -> 81 (2 steps)] here?
The ring closure, isolated yield was 78%.

With CN(C(=O)Cl)c1ccccc1-c1cccc(CCO)n1 [S124 -> 84] as the compound, how does the ring closure, isolated yield ([3]; 10-membered ring, 18.0 h) read?
The ring closure, isolated yield was 59%.

With CN(c1ccccc1-c1cccc(CCO)n1)S(=O)Cl (stereo not shown) [S124 -> 86] as the compound, how does the ring closure, isolated yield ([5]; 10-membered ring) read?
Its ring closure, isolated yield is 46%.

Which ring closure, isolated yield ([3]; 10-membered ring, 18.0 h) does the source give for CN(C(=O)Cl)c1ccccc1-c1cccc(CC(O)c2ccccc2)n1 (stereo not shown) [S126 -> 85 (NMR yield)] here?
Its ring closure, isolated yield is 34%.

For CC(Cc1cccc(-c2ccccc2CO)n1)N(C(=O)C(=O)Cl)c1ccccc1 (stereo not shown) [S127 -> 87], which ring closure, isolated yield ([4]; 12-membered ring, 3.0 h) is on record?
Its ring closure, isolated yield is 71%.

Which ring closure, isolated yield ([5]; 11-membered ring) does the source give for CC(O)Cc1cccc(-c2ccccc2COS(=O)Cl)n1 (stereo not shown) [S129 -> 88] here?
Its ring closure, isolated yield is 58%.

Which ring closure, isolated yield ([5]; 10-membered ring) does the source give for O=S(Cl)OCCCN(CCCO)c1ccccc1 (stereo not shown) [S130 -> 89] here?
Its ring closure, isolated yield is 40%.

Which ring closure, isolated yield ([3]; 10-membered ring, 18.0 h) does the source give for O=C(Cl)N(CCCN(CCCO)c1ccccc1)c1ccccc1 [S138 -> 94] here?
The ring closure, isolated yield was 78%.

With O=C(Cl)C(=O)N(CCc1cccc(CCNc2ccccc2)n1)c1ccccc1 [S140 -> 96] as the compound, how does the ring closure, isolated yield ([4]; 11-membered ring, 0.5 h) read?
The ring closure, isolated yield was 51%.

With O=C(Cl)N(CCc1cccc(CCNc2ccccc2)n1)c1ccccc1 [S140 -> 97] as the compound, how does the ring closure, isolated yield ([3]; 10-membered ring, 18.0 h) read?
Its ring closure, isolated yield is 49%.
